Results from patent US10753935B2, “Prognostic method and kits useful in said method” (Zelda Therapeutics Operations Pty Ltd, priority 2016, dated 2020).

Experiments:
HER2-HER2 dimers = assay: In situ proximity ligation assay of HER2-HER2 dimers in HCC1954 cells; format: cell-based, human; details: THC treatment
Protocol: FIG. 6. HER2-HER2 dimer expression in HCC1954 cells. Representative images of the PLA experiments, in response to the indicated treatments.
(§1) Cells were grown on glass coverslips and fixed in 4% paraformaldehyde, washed with PBS containing 20 mM glycine, permeabilized with the same buffer containing 0.05% Triton® X-100, and washed successively with PBS. HER2-CB2R heteromers were detected using the Duolink in situ Probemarker kit (Olink, Bioscience, Uppsala, Sweden). After 1 h of incubation at 37° C. with the blocking solution in a preheated humidity chamber, cells were incubated overnight in the antibody dilution medium with a mixture of equal amounts of rabbit anti-CB2 antibody (1:50, Cayman Chemical, Ann Arbor, Mich.) directly linked to a plus PLA probe, and rabbit anti-HER2 antibody (1:50, Santa Cruz Biotechnology, Santa Cruz, Calif., US) directly linked to a minus PLA probe. […] Amplification was done with the Duolink II detection reagents red kit, which contains fluorescence nucleotides. […] PLA requires that both receptors be close enough to allow the two different antibody-DNA probes to be able to ligate (<17 nm) ((Soderberg et al., (2008), Methods., 45: 227-232; Trifilieff et al., (2011), BioTechniques, 51: 111-118). If the receptors are within sufficient proximity, a punctate fluorescent signal can be detected by confocal microscopy.

HER2 [1] = assay: Western blot of HER2 in HCC1954 cells; format: cell-based, human; details: THC treatment
Protocol: FIG. 5. Protein expression in HCC1954 cells. Protein expression analysis by Western blot of total and phosphorylated (i.e., activated) HER2 in response to THC.
(§2) We have now confirmed this observation by Western blot in HCC1954 cells (FIG. 5).
HCC1954 cells were treated with RIPA buffer (50 mM Tris, 150 mM NaCl, 1% NP-40, 0.5% sodium deoxycholate, and 0.1% sodium dodecyl sulfate), containing a cocktail of protease inhibitors (pepstatin, leupeptin, aprotinin, quimostatin, antipain, and phenylmethylsulfonyl fluoride) and phosphatase inhibitors (Na3VO4 and NaF; Sigma Chemical Co., St. Louis, Mo.). Proteins separated by sodium dodecyl sulfate-10% polyacrylamide reducing gels were transferred to polyvinylidene difluoride membranes (Bio-Rad Laboratories, Hercules, Calif.). After blocking with 5% skim milk and 1% bovine serum albumin, membranes were incubated with the anti-ErbB2 antiserum (Santa Cruz Biotechnology, Santa Cruz, Calif.) diluted 1:500 for 3 h at room temperature. […] A chemiluminescence detection system (Amersham Pharmacia Biotech, Piscataway, N.J.) was used to reveal peroxidase. Controls were carried out with an anti-actin monoclonal antibody (MAb; Boehringer Mannheim, Indianapolis, Ind.) diluted 1:5,000 followed by an anti-mouse IgG peroxidase-labeled antibody diluted 1:4,000 (Zymed).

HER2 [2] = assay: HER2 degradation in BT474 cells; format: cell-based, human; details: THC treatment, previously observed
Source text: (§3) As discussed in Example 1, we observed these effects using Proximity Ligation assays (PLAs) and Bioluminescence Resonance Energy Transfer (BRET) assays.
as §2

HER2-CB2 heteromers [3] = target: T1, HER2-CB2 heteromers (Homo sapiens, UniProt P34972); assay: PLA and BRET assays of HER2-CB2 heteromers in BT474 cells; format: cell-based; details: THC at concentrations that produce anti-tumor responses, previously reported by the applicants
T1 sequence (P34972 whole entry, one chain of several): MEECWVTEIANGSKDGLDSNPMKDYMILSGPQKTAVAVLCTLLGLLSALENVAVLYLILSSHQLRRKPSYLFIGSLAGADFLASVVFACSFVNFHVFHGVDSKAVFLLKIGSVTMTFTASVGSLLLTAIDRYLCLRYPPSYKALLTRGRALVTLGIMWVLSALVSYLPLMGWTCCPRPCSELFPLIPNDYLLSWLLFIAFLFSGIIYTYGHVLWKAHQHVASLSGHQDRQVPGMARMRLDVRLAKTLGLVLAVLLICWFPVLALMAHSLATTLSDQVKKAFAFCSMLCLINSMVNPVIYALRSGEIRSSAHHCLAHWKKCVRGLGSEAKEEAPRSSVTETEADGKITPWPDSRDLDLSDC
Protocol: as §3, §1

HER2-CB2 heteromers [4] = target: T1, HER2-CB2 heteromers; assay: Co-immunoprecipitation of HER2 and CB2-HA in HCC1954 cells; format: cell-based; parameters: HER2-CB2 heteromer expression in HCC1954 cells; endogenous in cells; host or cells: HCC1954; details: HCC1954 cells transfected with CB2-HA; 3 μM THC for 4 h
Protocol: (§4) FIG. 3. Western blot analysis of HER2 and CB2 in the indicated cell lines. Cells were transfected with a CB2-HA encoding plasmid and treated with THC for 4 h. HER2 was then immune-precipitated with an anti-HER2 antibody, and blots were developed with anti-HA antibodies.
(§5) HCC1954 and BT474 cells were transiently transfected with pcDNA3-HA-hCB2 or the corresponding empty vector (pcDNA3), using Fugene HD Transfection Reagent (Promega, Madison, Wis.). 48 h after transfection, cells were treated with 3 μM THC or the corresponding vehicle (DMSO) for 4 h, and lysed using a specific buffer for co-immunoprecipitation (40 mM Hepes pH 7.5, 120 mM NaCl, 1 mM EDTA, 10 mM sodium pyrophosphate, 10 mM sodium glycerophosphate, 50 mM sodium fluoride, 0.5 mM sodium orthovanadate, 0.3% CHAPS and supplemented with 1 mM benzamidine and 0.1 mM PMSF in fresh). Cell lysates (1 mg) were immunoprecipitated using 5 μg of anti-ErbB2 antibody (Neu C-18, Santa Cruz Biotechnology, Santa Cruz, Calif., US) covalently coupled to 5 μL protein G-sepharose. After immunoprecipitation, proteins were separated by SDS-10% polyacrylamide reducing gels and transferred to PVDF membranes. […] Bound antibodies were detected with a donkey anti-rabbit immunoglobulin G (IgG) peroxidase-labeled antibody (GE Healthcare, UK). […]

HER2-CB2 heteromers [5] = target: T1, HER2-CB2 heteromers; assay: Co-immunoprecipitation of HER2 and CB2-HA in BT474 cells; format: cell-based; details: BT474 cells transfected with CB2-HA; 3 μM THC for 4 h
Protocol: as §4, §5

HER2-CB2 heteromers [6] = target: T1, HER2-CB2 heteromers; assay: In situ proximity ligation assay of HER2-CB2 heteromers in HCC1954 cells; format: cell-based; parameters: HER2-CB2 heteromer expression in HCC1954 cells; endogenous in cells; host or cells: HCC1954; details: THC treatment
Protocol: HER2-CB2 heteromer expression in HCC1954 cells. Representative images of the PLA experiments, in response to the indicated treatments.
Cells were grown on glass coverslips and fixed in 4% paraformaldehyde, washed with PBS containing 20 mM glycine, permeabilized with the same buffer containing 0.05% Triton® X-100, and washed successively with PBS. HER2-CB2R heteromers were detected using the Duolink in situ Probemarker kit (Olink, Bioscience, Uppsala, Sweden). After 1 h of incubation at 37° C. with the blocking solution in a preheated humidity chamber, cells were incubated overnight in the antibody dilution medium with a mixture of equal amounts of rabbit anti-CB2 antibody (1:50, Cayman Chemical, Ann Arbor, Mich.) directly linked to a plus PLA probe, and rabbit anti-HER2 antibody (1:50, Santa Cruz Biotechnology, Santa Cruz, Calif., US) directly linked to a minus PLA probe. Cells were washed with wash buffer A at room temperature and incubated in a preheated humidity chamber for 30 min at 37° C. with the ligation solution (Duolink® II ligation stock, 1:5, and Duolink II ligase, 1:40) to induce annealing and ligation of the two DNA probes. Amplification was done with the Duolink II detection reagents red kit, which contains fluorescence nucleotides. After exhaustive washing at room temperature with wash buffer B, cells were mounted using mounting medium with DAPI. […]

With `CCCCCc1cc(O)c2c(c1)OC(C)(C)[C@@H]1CCC(C)=C[C@@H]21` [THC, Δ^9-tetrahydrocannabinol] the “effect on HER2-HER2 dimers (PLA)” value (HER2-HER2 dimers) was “disrupts not only HER2-CB2 but also HER2-HER2 dimers”, the “effect on HER2 protein level (Western blot)” value (HER2 [1]) was “degradation of HER2” and the “effect on HER2 protein level” value (HER2 [2]) was “degradation of HER2”. The “effect on HER2-CB2 heteromers (PLA, BRET)” value (HER2-CB2 heteromers [3]) was “disrupts HER2-CB2 heteromers”, the “effect on HER2-CB2 heteromers (co-IP)” value (HER2-CB2 heteromers [4]) was “disrupts HER2-CB2 heteromers” and the “effect on HER2-CB2 heteromers (co-IP)” value (HER2-CB2 heteromers [5]) was “disrupts HER2-CB2 heteromers”. For the same molecule, the “effect on HER2-CB2 heteromers (PLA)” value (HER2-CB2 heteromers [6]) was “breaks the heteromers by acting on CB2”.
